Laboratory results published in PubChem BioAssay (NCI).
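Five compound concentrations were applied to cells in 96-well plates for 48 hours; endpoints were derived by simple linear interpolation of the resulting dose-response curve. TGI is the concentration that stops growth completely.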

How the values were obtained:
Assay in all cases: DTP human tumour cell line panel, 48 h
CCRF-CEM leukemia = tested on: CCRF-CEM leukemia
COLO 205 colon = tested on: COLO 205 colon
HT29 colon = tested on: HT29 colon
MALME-3M melanoma = tested on: MALME-3M melanoma
NCI/ADR-RES ovarian = tested on: NCI/ADR-RES ovarian
RXF 393 renal = tested on: RXF 393 renal
SF-539 CNS = tested on: SF-539 CNS
SK-MEL-5 melanoma = tested on: SK-MEL-5 melanoma
SN12C renal = tested on: SN12C renal
UACC-257 melanoma = tested on: UACC-257 melanoma

Row | Compound | TGI (CCRF-CEM leukemia) [µM] | TGI (COLO 205 colon) [µM] | TGI (HT29 colon) [µM] | TGI (MALME-3M melanoma) [µM] | TGI (NCI/ADR-RES ovarian) [µM] | TGI (RXF 393 renal) [µM] | TGI (SF-539 CNS) [µM] | TGI (SK-MEL-5 melanoma) [µM] | TGI (SN12C renal) [µM] | TGI (UACC-257 melanoma) [µM]
1 | O=[N+]([O-])c1ccc(Cc2nc3cc4ccccc4cc3[nH]2)cc1C(F)(F)F | > 100 | 34.3 | > 100 | 25.1 | 23.9 | 32.1 | 39.1 | 25.1 | 38 | 29.5
2 | COC1=CC(=O)c2c(c(COC(C)=O)cn2C)C1=O | 0.71 | 0.0943 | 0.124 | 0.117 | 0.295 | 0.309 | 0.313 | 0.39 | 0.325 | 1.43
3 | CC(=O)Nc1c2sscc-2n(C)c1=O | 1.51 | 1.84 | 0.692 | 2.19 | 4.22 | 3.18 | 3.52 | 3.38 | 3.37 | 2.97
4 | CN(CC(=O)O)CC(=O)O | > 100 | > 100 | > 100 | > 100 | > 100 | > 100 | > 100 | > 100 | > 100 | > 100
5 | O=C(CC(Cc1ccccc1)c1ccc(Oc2ccccc2)cc1)Nc1cccc(Cl)c1 (stereo unspecified) | 21 | 19.3 | > 100 | > 100 | 38.3 | 62.8 | > 100 | 26.8 | > 100 | 76.2
6 | N#CC(NNC(=O)c1c(Cl)c(Cl)c(Cl)c(Cl)c1-c1nc2ccc(C(=O)c3ccccc3)cc2[nH]1)c1ccccc1 (stereo unspecified) | > 100 | 24.3 | > 100 | > 100 | 32.2 | 22.8 | 14.5 | 13.3 | 31.1 | > 100
7 | COc1ccc(N2C(=O)C(=O)N(C)C2=O)c2ccccc12 | > 10 | > 10 | > 10 | > 10 | > 10 | > 10 | > 10 | > 10 | > 10 | –
8 | C1=Nc2ccccc2Cn2nncc21 | > 100 | > 100 | > 100 | > 100 | – | > 100 | > 100 | – | > 100 | –
